From ChEMBL document CHEMBL1201862, “PubChem BioAssay data set” (2004)
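Protocol summary: plate cells (96-well), add compound at 5 concentrations, incubate 48 h, interpolate endpoints linearly. GI50 marks 50% less growth.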 Activity calls are given as the source filed them. Cut-off read from the data, not from the text of the source: active = GI50 up to about 1.1 µM and inactive = higher.

Columns and labels:
Experiment in all cases: NCI anticancer screen, dose series, 48 h
A498 = test system: A498
A549 = test system: A549
CAKI-1 = test system: CAKI-1
EKVX = test system: EKVX
HCT-116 = test system: HCT-116
Hs-578T = test system: Hs-578T
K562 = test system: K562
LOX IMVI = test system: LOX IMVI
NCI-H226 = test system: NCI-H226
NCI-H522 = test system: NCI-H522
OVCAR-5 = test system: OVCAR-5
RPMI-8226 = test system: RPMI-8226
SF-539 = test system: SF-539
SK-MEL-28 = test system: SK-MEL-28
SK-MEL-5 = test system: SK-MEL-5
SK-OV-3 = test system: SK-OV-3
T47D = test system: T47D
U-251 = test system: U-251
UACC-257 = test system: UACC-257
UACC-62 = test system: UACC-62

O=C(OC1CN2CCC1CC2)N(c1ccccc1)c1ccccc1 (stereo not given)
GI50 (A498): 24.7 µM (inactive) | GI50 (A549): > 100 µM (inactive) | GI50 (CAKI-1): > 100 µM (inactive) | GI50 (EKVX): > 100 µM (inactive) | GI50 (HCT-116): 47.4 µM (inactive) | GI50 (Hs-578T): > 100 µM (inactive) | GI50 (K562): 24.9 µM (inactive) | GI50 (LOX IMVI): 38.5 µM (inactive) | GI50 (NCI-H226): > 100 µM (inactive) | GI50 (NCI-H522): > 100 µM (inactive) | GI50 (OVCAR-5): > 100 µM (inactive) | GI50 (RPMI-8226): > 100 µM (inactive) | GI50 (SF-539): 68.4 µM (inactive) | GI50 (SK-MEL-28): 80.5 µM (inactive) | GI50 (SK-MEL-5): 29.4 µM (inactive) | GI50 (SK-OV-3): > 100 µM (inactive) | GI50 (T47D): > 100 µM (inactive) | GI50 (U-251): > 100 µM (inactive) | GI50 (UACC-257): 62.5 µM (inactive) | GI50 (UACC-62): 65 µM (inactive)

c1n[nH]cc1C12C3C4C5C3C1C5C42 (stereo not given)
GI50 (A498): > 100 µM (inactive) | GI50 (A549): > 100 µM (inactive) | GI50 (CAKI-1): > 100 µM (inactive) | GI50 (EKVX): 85.7 µM (inactive) | GI50 (HCT-116): > 100 µM (inactive) | GI50 (Hs-578T): > 100 µM (inactive) | GI50 (K562): > 100 µM (inactive) | GI50 (LOX IMVI): > 100 µM (inactive) | GI50 (NCI-H226): > 100 µM (inactive) | GI50 (NCI-H522): > 100 µM (inactive) | GI50 (OVCAR-5): 94.6 µM (inactive) | GI50 (RPMI-8226): > 100 µM (inactive) | GI50 (SF-539): > 100 µM (inactive) | GI50 (SK-MEL-28): > 100 µM (inactive) | GI50 (SK-MEL-5): > 100 µM (inactive) | GI50 (SK-OV-3): > 100 µM (inactive) | GI50 (T47D): 85.3 µM (inactive) | GI50 (U-251): > 100 µM (inactive) | GI50 (UACC-257): > 100 µM (inactive) | GI50 (UACC-62): > 100 µM (inactive)

CCOC(=O)C(=Cc1ccccc1Cl)C(=O)OCC
GI50 (A498): 2.92 µM (inactive) | GI50 (A549): 2.21 µM (inactive) | GI50 (CAKI-1): 2.02 µM (inactive) | GI50 (EKVX): 3.03 µM (inactive) | GI50 (HCT-116): 0.558 µM (active) | GI50 (Hs-578T): 2.89 µM (inactive) | GI50 (K562): 1.15 µM (inactive) | GI50 (LOX IMVI): 1.75 µM (inactive) | GI50 (NCI-H226): 2.9 µM (inactive) | GI50 (NCI-H522): 2.03 µM (inactive) | GI50 (OVCAR-5): 1.88 µM (inactive) | GI50 (RPMI-8226): 1.56 µM (inactive) | GI50 (SF-539): 2.1 µM (inactive) | GI50 (SK-MEL-28): 1.94 µM (inactive) | GI50 (SK-MEL-5): 2.06 µM (inactive) | GI50 (SK-OV-3): 5.26 µM (inactive) | GI50 (T47D): 2.64 µM (inactive) | GI50 (U-251): 1.63 µM (inactive) | GI50 (UACC-257): 1.82 µM (inactive) | GI50 (UACC-62): 1.69 µM (inactive)

N#CC(NNC(=O)Cc1ccccc1)c1ccccc1O (stereo not given)
GI50 (A498): > 48.9 µM (inactive) | GI50 (A549): 10.3 µM (inactive) | GI50 (CAKI-1): 12.6 µM (inactive) | GI50 (EKVX): 8.41 µM (inactive) | GI50 (HCT-116): 7.26 µM (inactive) | GI50 (Hs-578T): 56.2 µM (inactive) | GI50 (K562): 11.3 µM (inactive) | GI50 (LOX IMVI): 4.98 µM (inactive) | GI50 (NCI-H226): 17.3 µM (inactive) | GI50 (NCI-H522): 4.88 µM (inactive) | GI50 (OVCAR-5): 26.9 µM (inactive) | GI50 (RPMI-8226): 6.87 µM (inactive) | GI50 (SF-539): 16.4 µM (inactive) | GI50 (SK-MEL-28): 26.2 µM (inactive) | GI50 (SK-MEL-5): 10.6 µM (inactive) | GI50 (SK-OV-3): 14.5 µM (inactive) | GI50 (T47D): 2.62 µM (inactive) | GI50 (U-251): 6.15 µM (inactive) | GI50 (UACC-257): 14 µM (inactive) | GI50 (UACC-62): 5.28 µM (inactive)

CN(C)CCNC1=CC(=O)c2c(O)ccc(O)c2C1=O
GI50 (A498): 14.8 µM (inactive) | GI50 (A549): 10.1 µM (inactive) | GI50 (CAKI-1): 13.9 µM (inactive) | GI50 (EKVX): 12.8 µM (inactive) | GI50 (HCT-116): 2.8 µM (inactive) | GI50 (Hs-578T): 23.1 µM (inactive) | GI50 (K562): 2.52 µM (inactive) | GI50 (LOX IMVI): 3.39 µM (inactive) | GI50 (NCI-H226): 17.6 µM (inactive) | GI50 (NCI-H522): 3.73 µM (inactive) | GI50 (OVCAR-5): 14.2 µM (inactive) | GI50 (RPMI-8226): 7.52 µM (inactive) | GI50 (SF-539): 7.1 µM (inactive) | GI50 (SK-MEL-28): 12.2 µM (inactive) | GI50 (SK-MEL-5): 1.67 µM (inactive) | GI50 (SK-OV-3): 28.6 µM (inactive) | GI50 (T47D): 9.66 µM (inactive) | GI50 (U-251): 11.9 µM (inactive) | GI50 (UACC-257): 2.36 µM (inactive) | GI50 (UACC-62): 2.33 µM (inactive)

O=S(=O)(O)c1ccc2c(/N=N/c3c(O)ccc4ccccc34)cccc2c1
GI50 (A498): > 100 µM (inactive) | GI50 (A549): > 100 µM (inactive) | GI50 (CAKI-1): > 100 µM (inactive) | GI50 (EKVX): 61.5 µM (inactive) | GI50 (HCT-116): > 100 µM (inactive) | GI50 (Hs-578T): > 100 µM (inactive) | GI50 (K562): 34.3 µM (inactive) | GI50 (LOX IMVI): > 100 µM (inactive) | GI50 (NCI-H226): > 100 µM (inactive) | GI50 (NCI-H522): > 100 µM (inactive) | GI50 (OVCAR-5): > 100 µM (inactive) | GI50 (RPMI-8226): > 100 µM (inactive) | GI50 (SF-539): > 100 µM (inactive) | GI50 (SK-MEL-28): > 100 µM (inactive) | GI50 (SK-MEL-5): > 100 µM (inactive) | GI50 (SK-OV-3): > 100 µM (inactive) | GI50 (T47D): > 100 µM (inactive) | GI50 (U-251): > 100 µM (inactive) | GI50 (UACC-257): > 100 µM (inactive) | GI50 (UACC-62): > 100 µM (inactive)

O=C(c1ccc([N+](=O)[O-])cc1)C(Br)C(Br)c1ccnc2ccccc12 (stereo not given)
GI50 (A498): 3.99 µM (inactive) | GI50 (A549): 8.28 µM (inactive) | GI50 (CAKI-1): 12.2 µM (inactive) | GI50 (EKVX): 8.79 µM (inactive) | GI50 (HCT-116): 1.92 µM (inactive) | GI50 (Hs-578T): 6.15 µM (inactive) | GI50 (K562): 2.83 µM (inactive) | GI50 (LOX IMVI): 2.11 µM (inactive) | GI50 (NCI-H226): 10.9 µM (inactive) | GI50 (NCI-H522): 1.86 µM (inactive) | GI50 (OVCAR-5): 16.5 µM (inactive) | GI50 (RPMI-8226): 2.23 µM (inactive) | GI50 (SF-539): 6.4 µM (inactive) | GI50 (SK-MEL-28): 11.1 µM (inactive) | GI50 (SK-MEL-5): 6.34 µM (inactive) | GI50 (SK-OV-3): 17.8 µM (inactive) | GI50 (T47D): 5.96 µM (inactive) | GI50 (U-251): 1.75 µM (inactive) | GI50 (UACC-257): 2.18 µM (inactive) | GI50 (UACC-62): 9.4 µM (inactive)
